Experimental data reported in patent US20240209028A1, “CNP COMPOUNDS” (priority 2022, published 2024).
In brackets after ≈: the same amount, converted by molar mass. Several values for one entry are separate records, joined by “and”; a condition that tells them apart may be missing. Identical values can stand only once. Like-named read-outs stand apart in the source and are kept apart here. Starred links: 1 amine or outer side, 2 acyl side, 3 side chain; linkers in the order of their positions; H or OH if unused. Positions of bridges follow the written chain, without caps; N, C: chain ends. Residues, ends and D or L forms follow the SMILES beside them. *: point of attachment. C18 diacid = O=C(O)CCCCCCCCCCCCCCCCC(=O)*; γGlu = O=C(O)[C@H](CCC(=O)[*:2])N[*:1]; AEEA = NCCOCCOCC(=O)O

What was measured:
[1] = Solubility of CNP compounds at pH 4.0 and pH 6.5; assay type: physicochemical
Procedure, shortened: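 Freeze-dried peptide was brought to a nominal ≥4000-5000 nmol/mL in 5 mM sodium acetate, 250 mM glycerol (pH 4.0) or in 8 mM sodium phosphate, 23 mg/mL glycerol (pH 6.5 via NaOH titration). Samples were equilibrated at room temperature overnight if undissolved, and supernatant concentration was measured by CAD.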

[2] = High-Molecular-Weight-Protein (HMWP) formation by SEC-UPLC; assay type: physicochemical; conditions: increase over two weeks at 37° C.
Procedure, shortened: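 Formulations at pH 4.0 or 6.5 incubated quiescently for two weeks at 37 °C; HMWP (peaks eluting before monomer, % of total peptide area) measured by SEC-UPLC, pH 2.4 mobile phase with 50% isopropanol, 50 °C, UV 215 nm. Value is HMWP increase, normalized to two weeks if needed.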

[3] = 8 mM sodium phosphate, 23 mg/mL glycerol, pH 6.5, room temperature, read-out: Solubility at pH 6.5
[4] = 5 mM sodium acetate, 250 mM glycerol, pH 4.0, room temperature, read-out: Solubility at pH 4.0

| SMILES | solubility [1, 3] [mM] | 2-Week HMWP formation at pH 6.5 (%), % relative to total peak area [2] [%] | solubility [1, 4] [mM] | 2-Week HMWP formation at pH 4.0 (%), % relative to total peak area [2] | solubility ([1]; pH 6.5) [mM] |
| --- | --- | --- | --- | --- | --- |
| CC[C@H](C)[C@@H]1NC(=O)[C@H](CCCNC(=N)N)NC(=O)[C@H](CC(=O)O)NC(=O)[C@H](CC(C)C)NC(=O)[C@@H]2CCCN2C(=O)[C@H](CC(C)C)NC(=O)CNC(=O)[C@H](Cc2ccccc2)NC(=O)[C@@H](NC(=O)CNC(=O)[C@H](CCC(N)=O)NC(=O)[C@H](CO)NC(=O)[C@H](CC(C)C)NC(=O)CNC(=O)[C@H](CCCCN)NC(=O)[C@H](CCCCN)NC(=O)[C@H](CCC(N)=O)NC(=O)[C@H](C)NC(=O)CNC(=O)[C@H](CCCCN)NC(=O)[C@H](Cc2ccc(O)cc2)NC(=O)[C@H](CCCCN)NC(=O)[C@H](CCCNC(=N)N)NC(=O)[C@H](C)NC(=O)COCCOCCNC(=O)COCCOCCNC(=O)CC[C@H](NC(=O)CC[C@H](NC(=O)CC[C@H](NC(=O)CC[C@H](NC(=O)CC[C@H](NC(=O)CCCCCCCCCCCCCCCCC(=O)O)C(=O)O)C(=O)O)C(=O)O)C(=O)O)C(=O)O)CSSC[C@@H](C(=O)O)NC(=O)CNC(=O)[C@H](CC(C)C)NC(=O)CNC(=O)[C@H](CO)NC(=O)[C@H](CC(C)C)NC(=O)[C@H](CO)NC(=O)CNC1=O [compound 1453] ({C18 diacid-γGlu-γGlu-γGlu-γGlu-γGlu-AEEA-AEEA}-ARKYKGAQKKGLSQGCFGLPLDRIGSLSGLGC-OH; disulfide 16-32) | 7.88 (≈ 35.8 mg/mL) | 3.94 |  |  |  |
| CC[C@H](C)[C@@H]1NC(=O)[C@H](CCCNC(=N)N)NC(=O)[C@H](CC(=O)O)NC(=O)[C@H](CC(C)C)NC(=O)[C@@H]2CCCN2C(=O)[C@H](CC(C)C)NC(=O)CNC(=O)[C@H](Cc2ccccc2)NC(=O)[C@@H](NC(=O)CNC(=O)[C@H](CCC(N)=O)NC(=O)[C@H](CO)NC(=O)[C@H](CO)NC(=O)CNC(=O)[C@H](CCCCN)NC(=O)[C@H](CCCCN)NC(=O)[C@H](CCC(N)=O)NC(=O)[C@H](C)NC(=O)CNC(=O)[C@@H]2CCCN2C(=O)[C@H](C)NC(=O)[C@H](CCC(N)=O)NC(=O)CNC(=O)[C@@H]2CCCN2C(=O)[C@H](C)NC(=O)[C@H](CCC(N)=O)NC(=O)CNC(=O)[C@@H]2CCCN2C(=O)[C@H](C)NC(=O)[C@H](CCC(N)=O)NC(=O)CNC(=O)COCCOCCNC(=O)COCCOCCNC(=O)CC[C@H](NC(=O)CCCCCCCCCCCCCCCCC(=O)O)C(=O)O)CSSC[C@@H](C(=O)O)NC(=O)CNC(=O)[C@H](CC(C)C)NC(=O)CNC(=O)[C@H](CO)NC(=O)[C@H](CC(C)C)NC(=O)[C@H](CO)NC(=O)CNC1=O [compound 1457] ({C18 diacid-γGlu-AEEA-AEEA}-GQAPGQAPGQAPGAQKKGSSQGCFGLPLDRIGSLSGLGC-OH; disulfide 23-39) | 8.96 (≈ 39.5 mg/mL) | 3.24 |  |  |  |
| CC[C@H](C)[C@@H]1NC(=O)[C@H](CCCNC(=N)N)NC(=O)[C@H](CC(=O)O)NC(=O)[C@H](CC(C)C)NC(=O)[C@@H]2CCCN2C(=O)[C@H](CC(C)C)NC(=O)CNC(=O)[C@H](Cc2ccccc2)NC(=O)[C@@H](NC(=O)CNC(=O)[C@H](CCCCN)NC(=O)[C@H](CO)NC(=O)[C@H](CC(C)C)NC(=O)CNC(=O)[C@H](CCCCN)NC(=O)[C@H](CCCCN)NC(=O)[C@H](CCC(N)=O)NC(=O)[C@H](C)NC(=O)CNC(=O)[C@H](CCCCN)NC(=O)[C@H](Cc2ccc(O)cc2)NC(=O)[C@H](CCCCN)NC(=O)[C@H](CCCNC(=N)N)NC(=O)[C@H](C)NC(=O)COCCOCCNC(=O)COCCOCCNC(=O)CC[C@H](NC(=O)CC[C@H](NC(=O)CC[C@H](NC(=O)CC[C@H](NC(=O)CC[C@H](NC(=O)CCCCCCCCCCCCCCCCC(=O)O)C(=O)O)C(=O)O)C(=O)O)C(=O)O)C(=O)O)CSSC[C@@H](C(=O)O)NC(=O)CNC(=O)[C@H](CC(C)C)NC(=O)CNC(=O)[C@H](CO)NC(=O)[C@H](CC(C)C)NC(=O)[C@H](CO)NC(=O)CNC1=O [compound 1470] ({C18 diacid-γGlu-γGlu-γGlu-γGlu-γGlu-AEEA-AEEA}-ARKYKGAQKKGLSKGCFGLPLDRIGSLSGLGC-OH; disulfide 16-32) | 0.595 (≈ 2.7 mg/mL) |  | 6.48 (≈ 29.4 mg/mL) | 1.75% |  |
| CC[C@H](C)[C@@H]1NC(=O)[C@H](CCCNC(=N)N)NC(=O)[C@H](CC(=O)O)NC(=O)[C@H](CC(C)C)NC(=O)[C@@H]2CCCN2C(=O)[C@H](CC(C)C)NC(=O)CNC(=O)[C@H](Cc2ccccc2)NC(=O)[C@@H](NC(=O)CNC(=O)[C@H](CO)NC(=O)[C@H](CO)NC(=O)[C@H](CC(C)C)NC(=O)CNC(=O)[C@H](CCCCN)NC(=O)[C@H](CCCCN)NC(=O)[C@H](CCC(N)=O)NC(=O)[C@H](C)NC(=O)CNC(=O)[C@H](CCCCN)NC(=O)[C@H](Cc2ccc(O)cc2)NC(=O)[C@H](CCCCN)NC(=O)[C@H](CCCNC(=N)N)NC(=O)[C@H](C)NC(=O)[C@H](CCC(N)=O)NC(=O)[C@@H]2CCCN2C(=O)[C@H](Cc2c[nH]cn2)NC(=O)[C@H](CCC(=O)O)NC(=O)[C@H](CCC(N)=O)NC(=O)COCCOCCNC(=O)COCCOCCNC(=O)CC[C@H](NC(=O)CC[C@H](NC(=O)CC[C@H](NC(=O)CC[C@H](NC(=O)CCCCCCCCCCCCCCCCC(=O)O)C(=O)O)C(=O)O)C(=O)O)C(=O)O)CSSC[C@@H](C(=O)O)NC(=O)CNC(=O)[C@H](CC(C)C)NC(=O)CNC(=O)[C@H](CO)NC(=O)[C@H](CC(C)C)NC(=O)[C@H](CO)NC(=O)CNC1=O [compound 1473] ({C18 diacid-γGlu-γGlu-γGlu-γGlu-AEEA-AEEA}-QEHPQARKYKGAQKKGLSSGCFGLPLDRIGSLSGLGC-OH; disulfide 21-37; C-terminus assumed) | 1.76 (≈ 8.8 mg/mL) |  | 5.83 (≈ 29.1 mg/mL) | 0.9% and 1.26% |  |
| CC[C@H](C)[C@@H]1NC(=O)[C@H](CCCNC(=N)N)NC(=O)[C@H](CC(=O)O)NC(=O)[C@H](CC(C)C)NC(=O)[C@@H]2CCCN2C(=O)[C@H](CC(C)C)NC(=O)CNC(=O)[C@H](Cc2ccccc2)NC(=O)[C@@H](NC(=O)CNC(=O)[C@H](CCCCN)NC(=O)[C@H](CO)NC(=O)[C@H](CC(C)C)NC(=O)CNC(=O)[C@H](CCCCN)NC(=O)[C@H](CCCCN)NC(=O)[C@H](CCC(N)=O)NC(=O)[C@H](C)NC(=O)CNC(=O)[C@H](CCCCN)NC(=O)[C@H](Cc2ccc(O)cc2)NC(=O)[C@H](CCCCN)NC(=O)[C@H](CCCNC(=N)N)NC(=O)[C@H](C)NC(=O)[C@H](CCC(N)=O)NC(=O)[C@@H]2CCCN2C(=O)[C@H](Cc2c[nH]cn2)NC(=O)[C@H](CCC(=O)O)NC(=O)[C@H](CCC(N)=O)NC(=O)COCCOCCNC(=O)COCCOCCNC(=O)CC[C@H](NC(=O)CC[C@H](NC(=O)CC[C@H](NC(=O)CC[C@H](NC(=O)CC[C@H](NC(=O)CCCCCCCCCCCCCCCCC(=O)O)C(=O)O)C(=O)O)C(=O)O)C(=O)O)C(=O)O)CSSC[C@@H](C(=O)O)NC(=O)CNC(=O)[C@H](CC(C)C)NC(=O)CNC(=O)[C@H](CO)NC(=O)[C@H](CC(C)C)NC(=O)[C@H](CO)NC(=O)CNC1=O [compound 1474] ({C18 diacid-γGlu-γGlu-γGlu-γGlu-γGlu-AEEA-AEEA}-QEHPQARKYKGAQKKGLSKGCFGLPLDRIGSLSGLGC-OH; disulfide 21-37; C-terminus assumed) | 0.969 (≈ 5 mg/mL) |  | 6.38 (≈ 32.9 mg/mL) | 1.6% |  |
| CC[C@H](C)[C@@H]1NC(=O)[C@H](CCCNC(=N)N)NC(=O)[C@H](CCC(=O)O)NC(=O)[C@H](CC(C)C)NC(=O)[C@@H]2CCCN2C(=O)[C@H](CC(C)C)NC(=O)CNC(=O)[C@H](Cc2ccccc2)NC(=O)[C@@H](NC(=O)CNC(=O)[C@H](CCC(N)=O)NC(=O)[C@H](CO)NC(=O)[C@H](CC(C)C)NC(=O)CNC(=O)[C@H](CCCCN)NC(=O)[C@H](CCCCN)NC(=O)[C@H](CCC(N)=O)NC(=O)[C@H](C)NC(=O)CNC(=O)[C@H](CCCCN)NC(=O)[C@H](Cc2ccc(O)cc2)NC(=O)[C@H](CCCCN)NC(=O)[C@H](CCCNC(=N)N)NC(=O)[C@H](C)NC(=O)COCCOCCNC(=O)COCCOCCNC(=O)COCCOCCNC(=O)COCCOCCNC(=O)CC[C@H](NC(=O)CC[C@H](NC(=O)CC[C@H](NC(=O)CC[C@H](NC(=O)CC[C@H](NC(=O)CCCCCCCCCCCCCCCCC(=O)O)C(=O)O)C(=O)O)C(=O)O)C(=O)O)C(=O)O)CSSC[C@@H](C(=O)O)NC(=O)CNC(=O)[C@H](CC(C)C)NC(=O)CNC(=O)[C@H](CO)NC(=O)[C@H](CC(C)C)NC(=O)[C@H](CO)NC(=O)CNC1=O [compound 1477] ({C18 diacid-γGlu-γGlu-γGlu-γGlu-γGlu-AEEA-AEEA-AEEA-AEEA}-ARKYKGAQKKGLSQGCFGLPLERIGSLSGLGC-OH; disulfide 16-32) |  | 1.83 |  |  | 5.35 (≈ 25.9 mg/mL) |
| CC[C@H](C)[C@@H]1NC(=O)[C@H](CCCNC(=N)N)NC(=O)[C@H](CC(=O)O)NC(=O)[C@H](CC(C)C)NC(=O)[C@@H]2CCCN2C(=O)[C@H](CC(C)C)NC(=O)CNC(=O)[C@H](Cc2ccccc2)NC(=O)[C@@H](NC(=O)CNC(=O)[C@H](CCC(N)=O)NC(=O)[C@H](CO)NC(=O)[C@H](CC(C)C)NC(=O)CNC(=O)[C@H](CCCCN)NC(=O)[C@H](CCCCN)NC(=O)[C@H](CCC(N)=O)NC(=O)[C@H](C)NC(=O)CNC(=O)[C@H](CCCCN)NC(=O)[C@H](Cc2ccc(O)cc2)NC(=O)COCCOCCNC(=O)COCCOCCNC(=O)COCCOCCNC(=O)COCCOCCNC(=O)CC[C@H](NC(=O)CC[C@H](NC(=O)CCCCCCCCCCCCCCCCC(=O)O)C(=O)O)C(=O)O)CSSC[C@@H](C(=O)O)NC(=O)CNC(=O)[C@H](CC(C)C)NC(=O)CNC(=O)[C@H](CO)NC(=O)[C@H](CC(C)C)NC(=O)[C@H](CO)NC(=O)CNC1=O [compound 1478] ({C18 diacid-γGlu-γGlu-AEEA-AEEA-AEEA-AEEA}-YKGAQKKGLSQGCFGLPLDRIGSLSGLGC-OH; disulfide 13-29; C-terminus assumed) | 2.18 (≈ 8.9 mg/mL) |  | 6.51 (≈ 26.6 mg/mL) | 1.98% |  |
